Reference: publication PMC9356783, “Succinimide Derivatives as Antioxidant Anticholinesterases, Anti-α-Amylase, and Anti-α-Glucosidase: In Vitro and In Silico Approaches” (Evidence-based Complementary and Alternative Medicine : eCAM, 2022)
“And” between values parts separate entries of the source, which are not always exact repeats. Equal values may be shown once.

Columns and labels:
[1] = target: T1, acetylcholinesterase (AChE) (Electrophorus electricus, UniProt O42275); assay: biochemical; type: biochemical
T1 construct: (AChE) acetylcholinesterase from electric eel; purchased Sigma Aldrich (local seller); host or cells: electric eel (natural source)
T1 sequence (O42275 24-633): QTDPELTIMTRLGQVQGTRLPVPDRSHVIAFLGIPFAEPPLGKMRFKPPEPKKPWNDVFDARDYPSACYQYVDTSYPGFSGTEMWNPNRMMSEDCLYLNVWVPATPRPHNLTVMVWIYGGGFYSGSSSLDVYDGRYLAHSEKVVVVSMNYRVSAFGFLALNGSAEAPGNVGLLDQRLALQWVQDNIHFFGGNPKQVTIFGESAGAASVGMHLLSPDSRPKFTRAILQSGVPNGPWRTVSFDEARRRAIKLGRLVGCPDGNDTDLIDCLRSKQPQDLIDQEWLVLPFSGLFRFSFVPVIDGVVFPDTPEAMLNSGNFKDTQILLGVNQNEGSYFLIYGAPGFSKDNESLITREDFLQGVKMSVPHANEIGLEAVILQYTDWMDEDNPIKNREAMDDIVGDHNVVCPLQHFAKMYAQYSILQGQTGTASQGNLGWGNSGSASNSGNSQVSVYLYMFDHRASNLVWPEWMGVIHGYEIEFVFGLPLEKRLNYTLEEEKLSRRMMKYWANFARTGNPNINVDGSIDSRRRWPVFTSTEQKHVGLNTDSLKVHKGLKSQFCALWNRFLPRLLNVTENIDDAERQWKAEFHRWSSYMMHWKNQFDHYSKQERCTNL
Procedure: (§1) In Ellman's test, enzymes like (BChE) butyrylcholinesterase from equine serum and (AChE) acetylcholinesterase from electric eel were designated for studying the enzyme inhibitory capacity of the new synthesized compounds [33, 34].
(§2) Synthetic compounds in concentration ranging from 31.25 to 500 µg/ml, KH2PO4 (13.6 g/L) and K2HPO4 (17.4 g/L), were dissolved in 0.1 M phosphate buffer solution. After mixing, they were combined in 6 and 94% ratio, to make 0.1 M and 8.0 phosphate buffer solutions having […]. Potassium hydroxide was used to change the pH. The freshly prepared buffer […], AChE (518 U/mg solid), and BChE (7–16 U/mg) were diluted to achieve final absolute concentrations of 0.01 U/ml and 0.03 U/ml, respectively. In distilled water, BChI (0.0005 M), DTNB iedithio bis-nitrobenzoic acid solution (0.0002273 M), and AChI were prepared and then kept in the refrigerator [35].
(§3) After that, the substrate solution (5 μl) was added into the solution present in mixture form and was held in a water bath for 15 minutes at 30°C. Absorbance was measured at 412 nm using a double beam spectrophotometer. […] At 30°C, the absorbance and the time of the reaction were measured at 30°C for four minutes and repeated three times.

[2] = target: T2, butyrylcholinesterase (BChE) (Equus caballus, UniProt P81908); assay: biochemical; type: biochemical
T2 construct: (BChE) butyrylcholinesterase from equine serum; purchased Sigma Aldrich (local seller); host or cells: equine serum (natural source)
T2 sequence (P81908 whole entry): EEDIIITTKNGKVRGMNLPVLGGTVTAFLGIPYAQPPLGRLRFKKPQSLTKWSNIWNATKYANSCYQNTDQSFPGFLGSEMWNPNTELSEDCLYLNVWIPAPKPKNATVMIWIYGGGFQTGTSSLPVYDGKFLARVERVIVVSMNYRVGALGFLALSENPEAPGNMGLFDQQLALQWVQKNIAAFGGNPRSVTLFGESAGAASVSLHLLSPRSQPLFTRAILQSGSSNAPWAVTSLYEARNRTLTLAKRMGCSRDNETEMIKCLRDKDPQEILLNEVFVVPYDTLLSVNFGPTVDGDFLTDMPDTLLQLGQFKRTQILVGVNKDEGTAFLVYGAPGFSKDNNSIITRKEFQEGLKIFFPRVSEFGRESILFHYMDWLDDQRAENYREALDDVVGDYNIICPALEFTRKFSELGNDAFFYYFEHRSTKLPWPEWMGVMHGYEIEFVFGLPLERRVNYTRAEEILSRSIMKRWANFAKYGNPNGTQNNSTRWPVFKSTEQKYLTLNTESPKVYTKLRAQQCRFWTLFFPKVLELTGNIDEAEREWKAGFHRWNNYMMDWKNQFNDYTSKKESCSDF
Procedure: as §1, §2, §3

[3] = ABTS radical scavenging assay; details: for IC50: read-out: ABTS free radicals scavenging IC50
Procedure: A previously reported method for ABTS radical scavenging assay was used to determine the anti-oxidant activity of the synthetic compounds with negligible modification. The stock solution was prepared, e.g., 7 mM ABTS solution and 2.4 mM of potassium persulfate solution, and then mixed in equal amounts for about 16 hours. The stock solution was then diluted with methyl alcohol. Using a spectrophotometer, the absorption (0.7 ± 0.02) units at 734 nm wavelength were identified. In this assay, the solution was prepared freshly. The ABTS solution (150 µl) was mixed with the synthesized compounds (50 µl) and then reserved in darkness for about 10 minutes. The same procedure was repeated 3 times and then the results were verified using mean ± standard deviation. A solvent, e.g., methanol, was used as blank and the standard (butyl hydroxytoluen in methanol) were run at the same time. The absorbance was checked at a wavelength of 734 nm by utilizing a microplate reader.

[4] = DPPH radical scavenging assay; details: for IC50: read-out: DPPH free radicals scavenging IC50
Procedure: A previously reported method for DPPH radical scavenging activity was used to determine the anti-oxidant activity of the synthetic compounds with insignificant modification. A solution of DPPH, e.g., (50 µL of 1.0 × 10^−3 M), was prepared freshly and then added to CH3OH (methyl alcohol). A solvent like methanol was used as a control group. The mixture was then incubated for 30 minutes at 25°C. A spectrophotometer is used to calculate the DPPH free radicals at specific wavelength like 517 nm. After the incubation period, Trolox (drug) was used as the control group (positive). The anti-oxidant activity was determined using the following formula:(1) Percent Inhibition=Absorbancecontrol−Absorbancetest sample/Absorbancecontrol×100.

α-amylase = target: T3, α-amylase (Sus scrofa, UniProt P00690); assay: In vitro α-amylase inhibition assay; type: biochemical
T3 sequence (P00690 16-511): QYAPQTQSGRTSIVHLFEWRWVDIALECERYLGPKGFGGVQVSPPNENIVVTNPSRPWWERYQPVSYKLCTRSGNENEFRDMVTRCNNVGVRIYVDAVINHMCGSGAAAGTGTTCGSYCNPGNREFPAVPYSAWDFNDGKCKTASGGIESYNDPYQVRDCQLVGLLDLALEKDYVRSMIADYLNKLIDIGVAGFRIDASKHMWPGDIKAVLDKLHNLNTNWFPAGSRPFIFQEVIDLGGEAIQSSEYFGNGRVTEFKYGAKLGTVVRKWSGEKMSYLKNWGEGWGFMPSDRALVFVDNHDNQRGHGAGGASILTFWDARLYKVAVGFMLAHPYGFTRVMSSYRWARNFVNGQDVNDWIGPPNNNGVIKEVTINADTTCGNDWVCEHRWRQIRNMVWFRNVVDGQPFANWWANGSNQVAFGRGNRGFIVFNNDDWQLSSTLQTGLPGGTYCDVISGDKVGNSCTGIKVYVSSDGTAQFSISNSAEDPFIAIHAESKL
Procedure: In this assay, previously documented protocols were used. […] Starch solution was then mixed with the above solution and then incubated for about 20 minutes at 37°C. After incubation, the reactant mixture was then kept in a water bath for some time at 100°C. Color intensity was measured using a microplate reader at 656 nm. To determine percentage inhibition, the following formula was used:(4) Percent Inhibition=AbsorbanceControl−AbsorbanceSample/Absorbance Control×100.

α-glucosidase = α-glucosidase (Saccharomyces cerevisiae, UniProt P53341); assay: α-Glucosidase inhibitory assay; type: biochemical
α-glucosidase, sequence (P53341 whole entry): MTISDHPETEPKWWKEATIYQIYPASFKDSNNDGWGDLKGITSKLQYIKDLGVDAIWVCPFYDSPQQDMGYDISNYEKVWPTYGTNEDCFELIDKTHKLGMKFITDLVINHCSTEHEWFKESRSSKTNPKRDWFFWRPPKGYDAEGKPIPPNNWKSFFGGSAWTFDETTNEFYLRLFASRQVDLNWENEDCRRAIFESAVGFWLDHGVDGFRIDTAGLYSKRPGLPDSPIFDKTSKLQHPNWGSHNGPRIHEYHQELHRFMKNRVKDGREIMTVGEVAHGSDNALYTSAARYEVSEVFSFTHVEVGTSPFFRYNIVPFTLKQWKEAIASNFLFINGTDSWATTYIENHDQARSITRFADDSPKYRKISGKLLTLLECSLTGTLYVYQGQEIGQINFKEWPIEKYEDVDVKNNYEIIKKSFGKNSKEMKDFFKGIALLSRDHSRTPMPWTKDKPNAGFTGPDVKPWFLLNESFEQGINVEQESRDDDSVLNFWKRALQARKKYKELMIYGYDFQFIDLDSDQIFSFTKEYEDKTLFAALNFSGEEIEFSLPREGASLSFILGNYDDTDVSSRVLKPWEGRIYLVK
Procedure: In this assay, glucopyranoside is added to the solvent (phosphate buffer). Various concentrations of the synthetized compounds like 500, 250, 125, 62.5, and 31.25 µg/ml were used for preparing the sample solutions. Glucosidase in distilled water (0.5 µg/ml) was added to the above mixture. This mixture was then incubated for 20 minutes at 37°C [36]. After the incubation period, the reaction mixture was ceased by the addition of hydrochloric acid. The color intensity was determined at 540 nm wavelength using a spectrophotometer. The formula which was used to determine percentage inhibition is:(3) Percent Inhibition=AbsorbanceControl−AbsorbanceSample/Absorbance Control×100.

[5] = first value of series, concentration not given (method 31.25 to 500 µg/ml)
[6] = 500 μmol/mL (first value of the series)
[7] = fifth value of series, presumably 31.25
[8] = fourth value of series, presumably 62.5
[9] = second value of series, presumably 250
[10] = third value of series, presumably 125

For `O=C1CCCCC1C1CC(=O)N(Cc2ccccc2)C1=O` (centres unmarked) [MSJ2, 1-benzyl-3-(2-oxocyclohexyl) pyrrolidine-2,5-dione], the “percent anti-AChE potential” value [1, 5] was 91.90%, the “percent anti-BChE potential” value [2, 5] was 97.30% and the “percent inhibitions (ABTS)” value ([3]; 31.25 µmo/mL (fifth value)) was 74.65 ± 1.34%. For the same molecule, the IC50 [3] was 7.32 µM, the “percent radical scavenging (DPPH)” value ([4]; 31.25 μmol/mL (fifth value)) was 73.45 ± 0.65% and the “percent radical scavenging (DPPH)” value ([4]; 62.5 μmol/mL (fourth value)) was 78.23 ± 0.44%. For the same molecule, the “percent radical scavenging (DPPH)” value ([4]; 125 μmol/mL (third value)) was 81.50 ± 0.61%, the “percent radical scavenging (DPPH)” value ([4]; 250 μmol/mL (second value)) was 84.47 ± 0.46% and the “percent radical scavenging (DPPH)” value [4, 6] was 86.47 ± 0.70%. It also gave an IC50 [4] of 2.59 µM.
`O=C1CCCCC1C1CC(=O)N(c2ccccc2)C1=O` (centres unmarked) [MSJ1, 3-(2-oxocyclohexyl)-1-phenylpyrrolidine-2,5-dione] showed an IC50 [3] of 29.4 µM and an IC50 [4] of 34.6 µM.
For `CC(=O)C(C)(C)C1CC(=O)N(c2ccccc2)C1=O` (centres unmarked) [MSJ10, 3-(2-methyl-3-oxobutan-2-yl)-1-phenylpyrrolidine-2,5-dione], the “percent anti-AChE potential” value [1, 7] was 78.58 ± 1.12%, the “percent anti-AChE potential” value [1, 5] was 93.20% and 93.20 ± 0.10% and the “percent anti-AChE potential” value [1, 8] was 83.40 ± 0.25%. The IC50 ([1]; read-out: IC50 against AChE) was 4.97 µM, the “percent anti-AChE potential” value [1, 9] was 90.09 ± 0.32% and the “percent anti-AChE potential” value [1, 10] was 88.67 ± 1.20%. For the same molecule, the “percent anti-BChE potential” value [2, 7] was 73.89 ± 0.49%, the “percent anti-BChE potential” value [2, 5] was 91.36% and 91.36 ± 0.39% and the “percent anti-BChE potential” value [2, 8] was 78.26 ± 0.43%. For the same molecule, the IC50 ([2]; read-out: IC50 against BChE) was 10.7 µM, the “percent anti-BChE potential” value [2, 9] was 87.15 ± 1.07% and the “percent anti-BChE potential” value [2, 10] was 83.00 ± 0.44%. For the same molecule, the “percent inhibitions (ABTS)” value ([3]; 62.5 µmo/mL (fourth value)) was 79.67 ± 0.61%, the “percent inhibitions (ABTS)” value ([3]; 125 µmo/mL (third value)) was 85.79 ± 0.63% and the “percent inhibitions (ABTS)” value ([3]; 250 µmo/mL (second value)) was 90.90 ± 0.48%. The IC50 [3] was 3.29 µM, the “percent radical scavenging (DPPH)” value ([4]; 62.5 μmol/mL (fourth value)) was 79.67 ± 0.61% and the “percent radical scavenging (DPPH)” value ([4]; 125 μmol/mL (third value)) was 85.79 ± 0.63%. For the same molecule, the “percent radical scavenging (DPPH)” value ([4]; 250 μmol/mL (second value)) was 90.90 ± 0.48% and the IC50 [4] was 2.52 µM.
Molecule `C[C@H]1O[C@H](O[C@H]2[C@H](O)[C@@H](O)[C@@H](O[C@H]3[C@H](O)[C@@H](O)C(O)O[C@@H]3CO)O[C@@H]2CO)[C@H](O)[C@@H](O)[C@@H]1N[C@H]1C=C(CO)[C@@H](O)[C@H](O)[C@H]1O` (some centres unmarked) [Acarbose] has a α-amylase percent inhibition (α-amylase; 31.25 µmol/mL) of 75.45 ± 0.90%, a α-amylase percent inhibition (α-amylase; 62.5 µmol/mL) of 77.61 ± 0.43% and a α-amylase percent inhibition (α-amylase; 125 µmol/mL) of 82.40 ± 0.20%. The α-amylase percent inhibition (α-amylase; 500 µmol/mL) was 91.90 ± 0.96%, the α-glucosidase % inhibition (α-glucosidase; 31.25 µmol/mL) was 71.22 ± 0.47% and the α-glucosidase % inhibition (α-glucosidase; 62.5 µmol/mL) was 76.44 ± 0.28%. It also gave a α-glucosidase % inhibition (α-glucosidase; 125 µmol/mL) of 80.90 ± 1.11%, a α-glucosidase % inhibition (α-glucosidase; 250 µmol/mL) of 85.03 ± 2.16% and a α-glucosidase % inhibition (α-glucosidase; 500 µmol/mL) of 94.40 ± 0.03%.
With `O=C1CCCCCC1C1CC(=O)N(c2ccccc2)C1=O` (centres unmarked) [MSJ7, 3-(2-oxocycloheptyl)-1-phenylpyrrolidine-2,5-dione] the IC50 [3] was 36.3 µM and the IC50 [4] was 31.4 µM.
For `O=C1CCOCC1C1CC(=O)N(c2ccccc2)C1=O` (centres unmarked) [MSJ6, 3-(4-oxotetrahydro-2H-pyran-3-yl)-1-phenylpyrrolidine-2,5-dione], the IC50 [3] was 55.1 µM and the IC50 [4] was 44.9 µM.
Molecule `O=C1CCCC1C1CC(=O)N(c2ccccc2)C1=O` (centres unmarked) [MSJ8, 3-(2-oxocyclopentyl)-1-phenylpyrrolidine-2,5-dione] has an IC50 [3] of 25.2 µM and an IC50 [4] of 29.2 µM.
With `O=C1CCCCC1C1CC(=O)N(c2ccc(Br)cc2)C1=O` (centres unmarked) [MSJ3, 1-(4-bromophenyl)-3-(2-oxocyclohexyl) pyrrolidine-2,5-dione] the IC50 [3] was 24 µM and the IC50 [4] was 33.5 µM.
For `CC(=O)CC1CC(=O)N(c2ccccc2)C1=O` (centres unmarked) [MSJ9, 3-(2-oxopropyl)-1-phenylpyrrolidine-2,5-dione], the IC50 [3] was 38.1 µM and the IC50 [4] was 53 µM.
With `O=C1O[C@H]([C@@H](O)CO)C(O)=C1O` [Ascorbic acid, reference compound] the IC50 [3] was 4.66 µM, the “percent radical scavenging (DPPH)” value ([4]; 31.25 μmol/mL (fifth value)) was 86.42 ± 0.43% and the “percent radical scavenging (DPPH)” value ([4]; 62.5 μmol/mL (fourth value)) was 88.22 ± 1.28%. The “percent radical scavenging (DPPH)” value ([4]; 125 μmol/mL (third value)) was 91.52 ± 0.66%, the “percent radical scavenging (DPPH)” value ([4]; 250 μmol/mL (second value)) was 93.56 ± 0.45% and the “percent radical scavenging (DPPH)” value [4, 6] was 98.65 ± 1.32%. For the same molecule, the IC50 [4] was 6.25 µM.
`CC1CCC(=O)C(C2CC(=O)N(c3ccccc3)C2=O)C1` (centres unmarked) [MSJ4, 3-(5-methyl-2-oxocyclohexyl)-1-phenylpyrrolidine-2,5-dione] gave an IC50 [3] of 48.7 µM and an IC50 [4] of 32 µM.
Work on `CC1CCC(=O)C(C2CC(=O)N(Cc3ccccc3)C2=O)C1` (centres unmarked) [MSJ5, 1-benzyl-3-(5-methyl-2-oxocyclohexyl)pyrrolidine-2,5-dione] yielded an IC50 [3] of 51.2 µM and an IC50 [4] of 39 µM.
